Columns and labels:
[1] = in vivo; cited from earlier work
[2] = Water solubility; type: physicochemical
[3] = test system: Colon 26 tumors; assay: In-vivo photodynamic therapy (PDT), tumor regrowth monitored 60 days; conditions: BALB/c mice bearing Colon 26 tumors, PS dose 0.47 moles/kg, light 665 nm, 135 J/cm^2, 75 mW/cm^2, 24 hours post-injection
Description: Eight- to twelve-week-old BALB/cAnNCr mice (Jackson Laboratory, Bar Harbor, Me.) were inoculated subcutaneously (s.c.) with 1×10^6 Colon 26 cells. When tumors reached 40-70 mm^3, mice were injected i.v. (tail vein) with PS 1 (formulated in 1% Tween 80/D5W) or PAA nanoconstructs/formulations 6-10 suspended in water and further diluted in D5W. 24 hours post i.v. injection (dose of PS 1: […]), mice (BALB/c mice bearing Colon 26 tumors, 10 mice/group) were restrained in plexiglass holders and tumors were irradiated at 665 nm with a fluence and fluence rate of 135 J/cm^2 at 75 mW/cm^2, respectively, using a pumped argon-dye laser. The growth of tumors was measured two to three times per week and the mice were monitored for a total of 60 days post PDT treatment. When the tumor regrowth was >400 mm^3, the mice were euthanized according to the guidelines of the institute approved animal protocol.

[4] = in vivo; cited from earlier work; remark: listed apart in the source

| Molecule | plasma half lives [1] | solubility in water [2] | PDT response (no tumor regrowth) / tumor cure [3] | PDT response (no tumor regrowth) / tumor cure ([3]; listed as HPPH 1) | skin phototoxicity [4] |
| --- | --- | --- | --- | --- | --- |
| iodobenzyl pheophorbide-a | ~25 h | – | – | – | – |
| CC1(C)C(=CC=C2CCCC(C=CC3=[N+](CCCCS(=O)(=O)[O-])c4ccc5ccccc5c4C3(C)C)=C2Cl)N(CCCCS(=O)(=O)[O-])c2ccc3ccccc3c21.[Na+] [cyanine dye 2, IR820] | – | water insoluble | – | – | – |
| CCCCCCOC(C)c1c(C)c2cc3nc(c4c5[nH]c(cc6nc(cc1[nH]2)C(C)=C6CC)c(C)c5C(=O)C4)[C@@H](CCC(=O)O)[C@@H]3C (stereo partly drawn) [HPPH, 3-(1′-hexyloxyethyl)pyropheophorbide-a] | ~25 h | – | 40% | 40% | low skin phototoxicity |

— patent publication US10568963B2, “Multifunctional nanoplatforms for fluorescence imaging and photodynamic therapy developed by post-loading photosensitizer and fluorophore to polyacrylamide nanoparticles” (HEALTH RESEARCH, INC., priority 2009, dated 2020)
